From patent publication US20240351995A1, “(3-PIRYDYL)-QUINAZOLINE” (BASF SE, priority 2021, published 2024)

Columns and labels:
[1] = tested on: Corynespora cassiicola G413A mutant; experiment: Microtest: activity against Corynespora cassiicola G413A mutant in the microtiterplate test; assay type: cell-based; conditions: 31 ppm, relative to active compound-free control (100%)
Description: (§1) The active compounds were formulated separately as a stock solution having a concentration of 10000 ppm in dimethyl sulfoxide.
(§2) The stock solutions were mixed according to the ratio, pipetted onto a micro titer plate (MTP) and diluted with water to the stated concentrations.
(§3) The measured parameters were compared to the growth of the active compound-free control variant (100%) and the fungus-free blank value to determine the relative growth in % of the pathogens in the respective active compounds.
A spore suspension of Corynespora cassiicola in an aqueous biomalt or yeast-bactopeptone-sodiumacetate solution was then added.

[2] = tested on: Cercospora zeae maydis; experiment: Microtest: activity against Cercospora zeae maydis in the microtiterplate test; assay type: cell-based; conditions: 31 ppm; relative to active compound-free control (100%)
Description: as §1, §2, §3
A spore suspension of Cercospora zeae maydis in an aqueous biomalt or yeast-bactopeptone-sodiumacetate solution was then added.

CCC1(C)N=C(c2cnc(C(F)F)c(C)c2)c2cccc(F)c2N1 (racemic) [Ex-25]
growth of the pathogen (relative growth in %) [1]: 19%

Cc1cc(C2=NC(C)(CC(C)C)Nc3c(F)cccc32)cnc1C(F)F (racemic) [Ex-26]
growth of the pathogen (relative growth in %) [1]: 19%

CCC1(C)N=C(c2cnc(C(F)F)c(C)c2)c2cccc(F)c2N1C (racemic) [Ex-29]
growth of the pathogen (relative growth in %) [2]: 17% | growth of the pathogen (relative growth in %) [1]: 19%

Cc1cc(C2=NC(C)(CC(C)C)N(C)c3c(F)cccc32)cnc1C(F)F (racemic) [Ex-32]
growth of the pathogen (relative growth in %) [1]: 19%

Cc1cc(C2=NC(C)(CC(C)C)N(C#N)c3c(F)cccc32)cnc1C(F)F (racemic) [Ex-41]
growth of the pathogen (relative growth in %) [2]: 17% | growth of the pathogen (relative growth in %) [1]: 19%

Cc1cc(C2=NC(C)(C3CC3)N(C)c3c(F)cccc32)cnc1C(F)F (racemic) [Ex-56]
growth of the pathogen (relative growth in %) [2]: 17% | growth of the pathogen (relative growth in %) [1]: 19%

Cc1cc(C2=NC(C)(c3ccccc3)N(C)c3c(F)cccc32)cnc1C(F)F (racemic) [Ex-60]
growth of the pathogen (relative growth in %) [2]: 17% | growth of the pathogen (relative growth in %) [1]: 19%

Cc1cc(C2=NC(C)(c3ccccn3)N(C)c3c(F)cccc32)cnc1C(F)F (racemic) [Ex-61]
growth of the pathogen (relative growth in %) [2]: 17% | growth of the pathogen (relative growth in %) [1]: 19%

Cc1cc(C2=NC(C)(C)Nc3c(F)cccc32)cnc1C(F)F [Ex-5]
growth of the pathogen (relative growth in %) [2]: 17% | growth of the pathogen (relative growth in %) [1]: 19%

Cc1cc(C2=NC(C)(C)N(C)c3c(F)cccc32)cnc1C(F)F [Ex-6]
growth of the pathogen (relative growth in %) [2]: 17% | growth of the pathogen (relative growth in %) [1]: 19%

CCN1c2c(F)cccc2C(c2cnc(C(F)F)c(C)c2)=NC1(C)C [Ex-7]
growth of the pathogen (relative growth in %) [1]: 19%

Cc1cc(C2=NC(C)(C)Nc3c(Cl)cccc32)cnc1C(F)F [Ex-8]
growth of the pathogen (relative growth in %) [1]: 19%

Cc1cc(C2=NC(C)(C)N(C)c3c(Cl)cccc32)cnc1C(F)F [Ex-9]
growth of the pathogen (relative growth in %) [2]: 17% | growth of the pathogen (relative growth in %) [1]: 19%

CCCN1c2c(F)cccc2C(c2cnc(C(F)F)c(C)c2)=NC1(C)C [Ex-13]
growth of the pathogen (relative growth in %) [1]: 19%

CCCCN1c2c(F)cccc2C(c2cnc(C(F)F)c(C)c2)=NC1(C)C [Ex-14]
growth of the pathogen (relative growth in %) [1]: 19%

Cc1cc(C2=NC(C)(C)N(CC(C)C)c3c(F)cccc32)cnc1C(F)F [Ex-15]
growth of the pathogen (relative growth in %) [1]: 19%

CC(=O)N1c2c(F)cccc2C(c2cnc(C(F)F)c(C)c2)=NC1(C)C [Ex-20]
growth of the pathogen (relative growth in %) [1]: 19%

Cc1cc(C2=NC(C)(C)N(C)c3c(Cl)cccc32)cnc1C [Ex-22]
growth of the pathogen (relative growth in %) [2]: 17% | growth of the pathogen (relative growth in %) [1]: 19%

Cc1cc(C2=NC(C)(C)Nc3c(Cl)cccc32)cnc1C [Ex-23]
growth of the pathogen (relative growth in %) [1]: 19%

Cc1cc(C2=NC(C)(C)N(C#N)c3ccccc32)cnc1C(F)F [Ex-27]
growth of the pathogen (relative growth in %) [1]: 19%

Cc1cc(C2=NC(C)(C)N(C#N)c3c(Cl)cccc32)cnc1C [Ex-28]
growth of the pathogen (relative growth in %) [1]: 19%

Cc1ccc2c(c1)NC(C)(C)N=C2c1cnc(C(F)F)c(C)c1 [Ex-31]
growth of the pathogen (relative growth in %) [1]: 19%

Cc1cc(C2=NC(C)(C)N(C#N)c3ccccc32)cnc1C [Ex-35]
growth of the pathogen (relative growth in %) [1]: 19%

Cc1cc(C2=NC(C)(C)N(C)c3cc(F)ccc32)cnc1C(F)F [Ex-36]
growth of the pathogen (relative growth in %) [1]: 19%

Cc1cc(C2=NC(C)(C)N(C)c3cc(Cl)ccc32)cnc1C(F)F [Ex-38]
growth of the pathogen (relative growth in %) [2]: 17% | growth of the pathogen (relative growth in %) [1]: 19%

Cc1ccc2c(c1)N(C)C(C)(C)N=C2c1cnc(C(F)F)c(C)c1 [Ex-40]
growth of the pathogen (relative growth in %) [1]: 19%

Cc1cc(C2=NC(C)(C)N(C)c3c(Br)cccc32)cnc1C(F)F [Ex-50]
growth of the pathogen (relative growth in %) [2]: 17% | growth of the pathogen (relative growth in %) [1]: 19%

Cc1cc(C2=NC(C)(C)N(C)c3c(C)cccc32)cnc1C(F)F [Ex-53]
growth of the pathogen (relative growth in %) [2]: 17% | growth of the pathogen (relative growth in %) [1]: 19%

Cc1cc(C2=NC(C)(C)N(C#N)c3cc(F)ccc32)cnc1C(F)F [Ex-55]
growth of the pathogen (relative growth in %) [1]: 19%

C#Cc1cccc2c1NC(C)(C)N=C2c1cnc(C(F)F)c(C)c1 [Ex-81]
growth of the pathogen (relative growth in %) [2]: 17%

Cc1cc(C2=NC(C)(C)N(C)c3c2ccc(F)c3F)cnc1C(F)F [Ex-91]
growth of the pathogen (relative growth in %) [2]: 17% | growth of the pathogen (relative growth in %) [1]: 19%
